Values quoted from earlier work in patent US6689338B2, “Bioconjugates of nanoparticles as radiopharmaceuticals” (The Board of Regents for Oklahoma State University, priority 2000, dated 2004).

Tested on: tumor
Settings: in vivo

Which liver background does the source give for `O=C([O-])CN(CCN(CC(=O)[O-])CC(=O)[O-])CCN(CC(=O)[O-])CC(=O)[O-].[111In+3].[H+].[H+]` here?
The liver background was “high liver background”.
